Assay results from patent US5756517A, “Use of bisquinoline compounds in the treatment of cerebral disorders” (Bayer Aktiengesellschaft, priority 1996, dated 1998).

How the values were obtained:
[1] = biological target: apamin binding sites / apamin receptors (apamin-sensitive potassium channels), calves' cerebral membrane; test: Binding of 125I-apamin to calves' cerebral membrane; details: displacement of 125I-apamin (30 pM), calf hippocampus membranes, 60 min on ice
Protocol: 1) Binding of ^125 I-apamin to calves' cerebral membrane
Calf brains were obtained from the local abattoir. The hippocampus was prepared on ice and a membrane suspension was made up by homogenization twice in buffer (100 mM Tris-HCl, KCl 5 mM, pH 7.4) and centrifugation at 43,000×g. In a total volume of 500 μl, the incubation mixture contained 200 μg of membrane protein, 30 pM ^125 I-apamin and test substances in the concentration range 1×10^-9 to 1×10^-4 M. The non-specific binding of ^125 I-apamin was determined in the presence of 1×10^-7 M unlabeled apamin.
After preincubation for 30 min at room temperature (test substances and membrane homogenate), the samples were placed on ice for 10 min before the radioligand was added. The main incubation time was 60 min on ice. When the reaction time had elapsed, an excess of ice-cooled incubation buffer was added to each sample and the mixture was filtered with suction through cellulose acetate/nitrate membrane filters. The amount of bound ^125 I-apamin was measured with a gamma counter.

[2] = system: apamine-sensitive potassium channels in PC12 cells; test: Non-radioactive Rb+ efflux assay for the identification of potassium channel modulators (PC12 cells); format: cell-based; details: Rattus norvegicus, PC-12, 10 min, 10 min stimulation with 50 mM KCl, read-out: % inhibition of the Rb efflux at a test concentration of 10 μM
Protocol: 2) Non-radioactive Rb^+ efflux assay for the identification of potassium channel modulators
The cellular potassium in PC12 cells is exchanged with rubidium, which is not present in the cells. This exchange is performed by incubating the cells over a period of 4 h in a physiological buffer containing 5.4 mM RbCl without KCl. This rubidium subsequently serves as a tracer for potassium. The cells laden with Rb^+ in this way are washed three times and then stimulated by depolarization with 50 mM KCl to open potassium channels (10 min), causing Rb^+ to flow out of the cells into the supernatant according to the concentration gradient.
The rubidium contents in the cell supernatant and in the residual cells after they have been lyzed with 1% Triton X-100 are then. determined by means of atomic absorption spectroscopy. The relative proportion of rubidium in the cell supernatant (=Rb^+ efflux) is used as a measure of the potassium channel activity.
The effect of substances on the channel activity is measured by co-incubating the test substance over the ten-minute stimulation period and determining its effect on the Rb^+ efflux in the manner described above.

Row | Compound | Ki [1] [nM] | inhibition at 10 µM [2] [%]
1 | Cc1cc(NCCC(O)CCNc2cc(C)nc3ccccc23)c2ccccc2n1 [Example 14] | 190 | –
2 | Cc1cc(NCC(O)CNc2cc(C)nc3ccccc23)c2ccccc2n1 [Example 15] | – | 73
